How the values were obtained:
Chitinase (Trichoderma) [1] = assay: Compound was evaluated for inhibitory activity against Trichoderma Chitinase in presence of allosamidin at the dose of 31 ug/mL
Chitinase (Trichoderma) [2] = assay: Compound was evaluated for inhibitory activity against Trichoderma Chitinase in presence of allosamidin at the dose of 7.8 ug/mL
Chitinase (Trichoderma) [3] = assay: Compound was evaluated for inhibitory activity against trichoderma chitinase in presence of allosamidin at the dose of 500 ug/mL
Chitinase (Trichoderma) [4] = assay: Compound was evaluated for inhibitory activity against Trichoderma Chitinase in presence of allosamidin at the dose of 125 ug/mL

`CC(=O)NC(/C=N/NC(=O)CCCCCNC(=O)CCCCC1SC[C@@H]2NC(=O)N[C@H]12)C(OC(/C=N/NC(=O)CCCCCNC(=O)CCCCC1SC[C@@H]2NC(=O)N[C@H]12)CO)OC1C(CO)OC(OC2C(O)C3N=C(N(C)C)OC3C2CO)C(NC(C)=O)C1O` (some centres undefined) gave an inhibition (Chitinase (Trichoderma) [1]) of 21.9%, an inhibition (Chitinase (Trichoderma) [2]) of 7.8% and an inhibition (Chitinase (Trichoderma) [3]) of 65.6%. The inhibition (Chitinase (Trichoderma) [4]) was 42.2%.

Reference: ChEMBL document CHEMBL1131268, “Preparation of biotinylated allosamidins with strong chitinase inhibitory activities” (Bioorg Med Chem Lett, 1998)
